# Assays:
# human recombinant GCS = target: T1, human recombinant GCS (Homo sapiens, UniProt Q16739); assay: Human GCS inhibition, recombinant enzyme expressed in insect cells; type: biochemical
# T1 construct: made in house; host or cells: insect cells
# T1 sequence (Q16739 1-394): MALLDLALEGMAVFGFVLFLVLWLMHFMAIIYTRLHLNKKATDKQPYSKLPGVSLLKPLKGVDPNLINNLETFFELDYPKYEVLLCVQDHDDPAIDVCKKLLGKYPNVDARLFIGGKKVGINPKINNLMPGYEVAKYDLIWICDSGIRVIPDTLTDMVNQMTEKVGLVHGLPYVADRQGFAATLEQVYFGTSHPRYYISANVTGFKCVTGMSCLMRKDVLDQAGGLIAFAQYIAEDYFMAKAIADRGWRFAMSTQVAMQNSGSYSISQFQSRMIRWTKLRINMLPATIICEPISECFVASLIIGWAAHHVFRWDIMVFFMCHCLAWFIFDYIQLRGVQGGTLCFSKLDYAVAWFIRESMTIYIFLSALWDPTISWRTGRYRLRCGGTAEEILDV
# [1] = target: Porcine intestinal lactase (Sus scrofa, UniProt F1S0D7); assay: Porcine intestinal lactase inhibition; type: biochemical; conditions: read-out: Porcine intestinal lactase (Ki μM)
# Chain of Porcine intestinal lactase (F1S0D7 840-1898): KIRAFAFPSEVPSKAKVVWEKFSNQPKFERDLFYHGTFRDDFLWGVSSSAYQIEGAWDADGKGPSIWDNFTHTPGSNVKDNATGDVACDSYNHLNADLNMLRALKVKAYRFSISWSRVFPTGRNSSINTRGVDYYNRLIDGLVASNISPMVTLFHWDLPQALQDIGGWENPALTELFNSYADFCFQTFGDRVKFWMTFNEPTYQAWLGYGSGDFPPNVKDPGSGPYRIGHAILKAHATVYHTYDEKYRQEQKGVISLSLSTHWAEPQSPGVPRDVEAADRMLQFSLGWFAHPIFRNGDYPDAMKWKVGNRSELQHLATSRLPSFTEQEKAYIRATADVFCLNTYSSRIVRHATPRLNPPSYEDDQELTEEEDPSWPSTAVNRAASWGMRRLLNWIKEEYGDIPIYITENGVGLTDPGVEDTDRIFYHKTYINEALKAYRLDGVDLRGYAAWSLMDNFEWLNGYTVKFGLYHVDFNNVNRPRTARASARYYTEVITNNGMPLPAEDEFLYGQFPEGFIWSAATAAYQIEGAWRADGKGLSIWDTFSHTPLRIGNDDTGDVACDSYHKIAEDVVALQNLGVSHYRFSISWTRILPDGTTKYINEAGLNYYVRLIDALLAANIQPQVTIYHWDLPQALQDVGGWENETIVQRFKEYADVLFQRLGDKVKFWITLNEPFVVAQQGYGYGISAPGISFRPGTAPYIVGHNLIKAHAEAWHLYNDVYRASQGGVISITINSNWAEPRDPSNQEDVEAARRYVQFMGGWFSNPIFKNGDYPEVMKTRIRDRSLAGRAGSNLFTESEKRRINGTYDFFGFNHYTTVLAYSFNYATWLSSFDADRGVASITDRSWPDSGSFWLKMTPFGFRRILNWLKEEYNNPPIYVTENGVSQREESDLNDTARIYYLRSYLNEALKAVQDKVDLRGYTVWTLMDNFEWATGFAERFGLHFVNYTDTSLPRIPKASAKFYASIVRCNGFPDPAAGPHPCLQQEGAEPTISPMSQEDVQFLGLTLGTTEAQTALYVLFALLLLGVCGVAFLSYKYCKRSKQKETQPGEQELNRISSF
# glycolipid biosynthesis = conditions: as disclosed in EP-A-0698012; cited from earlier work
# Human β-galactosidase = target: T2, Human β-galactosidase (Homo sapiens, UniProt P16278); assay: Human β-galactosidase assay; type: biochemical
# T2 sequence (P16278 29-677): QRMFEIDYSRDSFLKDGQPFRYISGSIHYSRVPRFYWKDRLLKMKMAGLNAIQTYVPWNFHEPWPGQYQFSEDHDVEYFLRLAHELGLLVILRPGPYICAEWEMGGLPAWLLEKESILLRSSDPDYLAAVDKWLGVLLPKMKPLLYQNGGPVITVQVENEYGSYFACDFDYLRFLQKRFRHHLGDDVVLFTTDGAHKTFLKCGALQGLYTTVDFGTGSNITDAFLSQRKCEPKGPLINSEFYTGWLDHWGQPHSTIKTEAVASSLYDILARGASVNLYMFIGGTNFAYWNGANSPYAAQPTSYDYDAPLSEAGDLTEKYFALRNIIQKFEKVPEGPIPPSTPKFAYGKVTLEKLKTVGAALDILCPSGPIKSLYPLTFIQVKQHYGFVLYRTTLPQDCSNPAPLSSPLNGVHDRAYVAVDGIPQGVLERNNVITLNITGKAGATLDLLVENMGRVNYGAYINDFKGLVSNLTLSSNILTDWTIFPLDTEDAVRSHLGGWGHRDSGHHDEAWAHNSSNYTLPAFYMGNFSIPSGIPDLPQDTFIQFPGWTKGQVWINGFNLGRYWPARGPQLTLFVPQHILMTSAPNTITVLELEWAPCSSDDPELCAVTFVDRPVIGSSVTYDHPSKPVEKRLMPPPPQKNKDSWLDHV
# Method: The glucosidase assays were performed as described (Biochemical Genetics, A Laboratory Manual, Oxford University Press) except that p-nitrophenyl linked substrates were used instead of methylumbelliferone linked substrates.
# [2] = target: Jack bean β-galactosidase; assay: Jack bean β-galactosidase inhibition; type: biochemical
# [3] = target: T3, Mouse ceramide β-galactosidase (Mus musculus, UniProt P54818); assay: Mouse ceramide β-galactosidase inhibition; type: biochemical
# T3 sequence (P54818 43-684): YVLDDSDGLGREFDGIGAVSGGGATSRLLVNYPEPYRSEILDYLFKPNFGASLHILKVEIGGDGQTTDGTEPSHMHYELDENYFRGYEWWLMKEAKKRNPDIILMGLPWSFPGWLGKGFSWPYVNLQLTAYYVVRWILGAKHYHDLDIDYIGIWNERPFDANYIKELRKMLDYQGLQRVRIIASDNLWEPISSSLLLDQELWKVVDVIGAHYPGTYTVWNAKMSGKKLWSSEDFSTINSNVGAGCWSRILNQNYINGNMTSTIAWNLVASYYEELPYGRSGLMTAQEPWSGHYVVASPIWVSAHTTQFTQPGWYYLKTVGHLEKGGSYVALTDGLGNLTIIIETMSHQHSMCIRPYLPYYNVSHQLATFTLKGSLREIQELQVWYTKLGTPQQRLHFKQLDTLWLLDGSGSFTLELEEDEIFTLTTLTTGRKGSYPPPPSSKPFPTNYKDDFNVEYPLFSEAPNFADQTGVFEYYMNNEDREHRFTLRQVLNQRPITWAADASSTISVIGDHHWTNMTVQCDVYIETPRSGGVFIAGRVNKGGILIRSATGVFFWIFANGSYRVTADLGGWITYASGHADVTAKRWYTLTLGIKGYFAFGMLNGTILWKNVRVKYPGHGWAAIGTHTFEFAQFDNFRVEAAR
# Human α-glucosidase = Human α-glucosidase assay, p-nitrophenyl linked substrates; type: biochemical
structure (smiles),measurement,setting,value
"CCCCCN1CC(O)C(O)C(O)C1CO [Example 3, 3,4,5-Piperidinetriol, 1-pentyl-2-(hydroxymethyl)-, (2S,3R,4R,5S)]",IC50,human recombinant GCS,4 µM
"CCCCN1CC(O)C(O)C(O)C1CO [Example 5, 3,4,5-Piperidinetriol, 1-butyl-2-hydroxymethyl)-, (2S,3S,4R,5S)]",Ki,[1],8000 µM
CCCCN1C[C@@H](O)[C@H](O)[C@H](O)[C@@H]1C [NB-DFJ],inhibition of glycolipid biosynthesis,glycolipid biosynthesis,do not act as inhibitors
"CCCCN1C[C@H](O)[C@@H](O)[C@@H](O)[C@H]1CO [NB-DGJ, N-butyldeoxygalactonojirimycin]",Ki,Human β-galactosidase,40 µM
same,IC50,[2],3.4 µM
same,Ki,[1],85 µM
same,IC50,[3],370 µM
CCCCN1C[C@@H](O)[C@@H](O)[C@H](O)[C@H]1CO [NB-DMJ],inhibition of glycolipid biosynthesis,glycolipid biosynthesis,do not act as inhibitors
"CCCCN1C[C@H](O)[C@@H](O)[C@H](O)[C@H]1CO [NB-DNJ, N-butyldeoxynojirimycin]",IC50,Human α-glucosidase,< 20 µM
CCCCN1C[C@H](NC(C)=O)[C@@H](O)[C@H](O)[C@H]1CO [NB-NAG],inhibition of glycolipid biosynthesis,glycolipid biosynthesis,do not act as inhibitors

# — patent US9199935B2, “Pharmaceutically active piperidine derivatives” (Acetelion Pharmaceuticals Ltd., priority 2001, dated 2015)
